Assay results: the RepoRT retention time repository (doi:10.1021/acs.analchem.1c00972)

Columns and labels:
Details in all cases: stereoisomer not certain
[1] = RP, Phenomenex Synergi Polar-RP, 100 × 3 mm, 2.5 µm, 40 °C, 0.4 mL/min, estimated dead time 1.1 min; A: water + 1 mM ammonium fluoride; B: methanol + 1 mM ammonium fluoride; C: acetonitrile; D: 50% isopropanol + 50% acetone; gradient (min/%B/%C/%D) 0/5/0/0 2/5/0/0 8/95/0/0 12/80/15/0 19/25/70/0 19.5/0/25/70 21.5/0/25/70 22.5/0/25/0 23/5/0/0
[2] = RP, Waters ACQUITY UPLC BEH C18, 100 × 1 mm, 1.7 µm, 50 °C, 0.3 mL/min, estimated dead time 0.17 min; A: water + 0.1% formic acid + 20 mM ammonium formate; B: methanol + 0.1% formic acid + 20 mM ammonium formate; gradient (min/%B) 0/0 15/100 21/100 22/0 30/0
[3] = RP, Waters ACQUITY UPLC BEH C18, 100 × 1 mm, 1.7 µm, 50 °C, 0.3 mL/min, estimated dead time 0.17 min; A: water + 10 mM ammonium bicarbonate; B: 10% water + 90% methanol + 10 mM ammonium bicarbonate; gradient (min/%B) 0/0 15/100 21/100 22/0 30/0

Row | SMILES | LC retention time [1] | LC retention time [2] | LC retention time [3]
1 | O=S(=O)(O)c1nc2ccccc2s1 [2-Benzothiazolesulfonic acid] | 6.31 min |  | 
2 | O=c1cc[nH]c(=S)[nH]1 [2-thiouracil] | 2.53 min |  | 
3 | Oc1cccc2n[nH]nc12 [4-Hydroxybenzotriazole] | 7 min |  | 
4 | O=S(=O)(O)CCC(F)(F)C(F)(F)C(F)(F)C(F)(F)C(F)(F)C(F)(F)F [6-2fluorotelomer sulfonic acid] | 8.97 min |  | 
5 | S=c1nc[nH]c2nc[nH]c12 [6-Mercaptopurine] | 3.32 min |  | 
6 | Oc1ccc(Cl)cc1Cl [24-Dichlorophenol] | 8.49 min |  | 
7 | O=C(O)COc1ccc(Cl)cc1Cl [24-Dichlorophenoxyacetic acid] | 8.06 min |  | 
8 | O=[N+]([O-])c1ccc(O)c([N+](=O)[O-])c1 [24-Dinitrophenol] | 7.62 min |  | 
9 | Nc1ccc(S(=O)(=O)O)c(N)c1 [24-diaminobenzenesulfonic acid] | 1.48 min |  | 
10 | O=S(=O)(O)c1ccc2ccc(S(=O)(=O)O)cc2c1 [27-Naphthalenedisulfonic acid] | 1.65 min |  | 
11 | Oc1cc(Cl)c(Cl)c(Cl)c1 [345-trichlorophenol] | 10.8 min |  | 
12 | O=c1[nH]c(Cl)c(Cl)cc1Cl [356-Trichloro-2-pyridinol] | 9.23 min |  | 
13 | O=C(O)Cc1ccc(S(=O)(=O)O)cc1 [(4-Sulfophenyl)acetic acid] | 1.82 min |  | 
14 | Nc1nc2c(ncn2COCCO)c(=O)[nH]1 [Acyclovir] | 3.17 min |  | 
15 | CC(C)c1c(C(=O)Nc2ccccc2)c(-c2ccccc2)c(-c2ccc(F)cc2)n1CCC(O)CC(O)CC(=O)O (stereo not given) [Atorvastatin] | 10.4 min |  | 
16 | COc1cc(O)c(C(=O)c2ccccc2)cc1S(=O)(=O)O [Benzophenone-4] | 8.32 min |  | 
17 | CC(C)(Oc1ccc(CCNC(=O)c2ccc(Cl)cc2)cc1)C(=O)O [Bezafibrate] | 9.33 min |  | 
18 | CC(O)(CS(=O)(=O)c1ccc(F)cc1)C(=O)Nc1ccc(C#N)c(C(F)(F)F)c1 (stereo not given) [Bicalutamide] | 10.7 min |  | 
19 | O=S(=O)(c1ccc(O)cc1)c1ccc(O)cc1 [Bisphenol S] | 9.36 min |  | 
20 | N#Cc1cc(Br)c(O)c(Br)c1 [Bromoxynil] | 8.68 min |  | 
21 | Cc1ccc(-c2cc(C(F)(F)F)nn2-c2ccc(S(N)(=O)=O)cc2)cc1 [Celecoxib] | 11.1 min |  | 
22 | CC(C)(Oc1ccc(Cl)cc1)C(=O)O [Clofibric acid] | 8.57 min |  | 
23 | O=c1c(-c2ccc(O)cc2)coc2cc(O)ccc12 [Daidzein] | 9.89 min |  | 
24 | O=C(O)Cc1ccccc1Nc1c(Cl)cccc1Cl [Diclofenac] | 10.1 min |  | 
25 | COCCN(C(=O)CS(=O)(=O)O)c1c(C)cccc1C [Dimethachlor ESA] | 7.88 min |  | 
26 | COCCN(C(=O)C(=O)O)c1c(C)cccc1C [Dimethachlor OA] | 7.5 min |  | 
27 | N#Cc1nn(-c2c(Cl)cc(C(F)(F)F)cc2Cl)c(N)c1S(=O)C(F)(F)F (stereo not given) [Fipronil] | 10.9 min |  | 
28 | O=C(NC(=O)c1c(F)cccc1F)Nc1ccc(Oc2ccc(C(F)(F)F)cc2Cl)cc1F [Flufenoxuron] | 11.9 min |  | 

Row | SMILES | LC retention time [1] | LC retention time [2] | LC retention time [3]
29 | NS(=O)(=O)c1cc(C(=O)O)c(NCc2ccco2)cc1Cl [Furosemide] | 8.45 min |  | 
30 | O=c1c(-c2ccc(O)cc2)coc2cc(O)cc(O)c12 [Genistein] | 10.3 min |  | 
31 | CCC1=C(C)CN(C(=O)NCCc2ccc(S(=O)(=O)NC(=O)NC3CCC(C)CC3)cc2)C1=O (stereo not given) [Glimepiride] | 11.3 min |  | 
32 | CC(C(=O)O)c1cccc(C(=O)c2ccccc2)c1 (stereo not given) [Ketoprofen] | 9.75 min |  | 
33 | CCCC1CC(C(=O)NC(C(C)O)C2OC(SC)C(O)C(O)C2O)N(C)C1 (stereo not given) [Lincomycin] | 9.98 min |  | 
34 | CCCCc1nc(Cl)c(CO)n1Cc1ccc(-c2ccccc2-c2nn[nH]n2)cc1 [Losartan] | 9.49 min |  | 
35 | Cc1cc(Cl)ccc1OCC(=O)O [MCPA] | 8.16 min |  | 
36 | CCC1OC(=O)CC(O)C(C)C(OC2OC(C)C(OC3CC(C)(O)C(O)C(C)O3)C(N(C)C)C2O)C(CC=O)CC(C)C(=O)C=CC(C)=CC1COC1OC(C)C(O)C(OC)C1OC (stereo not given) [Tylosin] |  | 13.1 min | 15.5 min
37 | O=c1ccc2ccc(O)cc2o1 [Umbelliferone] |  | 8.73 min | 6.78 min
38 | CC(C)C(N)C(=O)OCC(CO)OCn1cnc2c(=O)[nH]c(N)nc21 (stereo not given) [Valganciclovir] |  | 5.17 min | 7.16 min
39 | CCCC(CCC)C(=O)O [Valproic acid] |  | 14.2 min | 10.2 min
40 | CNC(=O)C(C)SCCSP(=O)(OC)OC (stereo not given) [Vamidothion (Vamidoate)] |  | 9.33 min | 9.45 min
41 | CNC(CC(C)C)C(=O)NC1C(=O)NC(CC(N)=O)C(=O)NC2C(=O)NC3C(=O)NC(C(=O)NC(C(=O)O)c4cc(O)cc(O)c4-c4cc3ccc4O)C(O)c3ccc(c(Cl)c3)Oc3cc2cc(c3OC2OC(CO)C(O)C(O)C2OC2CC(C)(N)C(O)C(C)O2)Oc2ccc(cc2Cl)C1O (stereo not given) [Vancomycin] |  | 7.04 min | 8.6 min
42 | CCCc1nc(C)c2c(=O)[nH]c(-c3cc(S(=O)(=O)N4CCN(CC)CC4)ccc3OCC)nn12 [Vardenafil] |  | 12.2 min | 14.8 min
43 | COc1ccc(CCN(C)CCCC(C#N)(c2ccc(OC)c(OC)c2)C(C)C)cc1OC (stereo not given) [Verapamil] |  | 12.4 min | 15.9 min
44 | N#CC1CCCN1C(=O)CNC12CC3CC(CC(O)(C3)C1)C2 (stereo not given) [Vildagliptin] |  | 6.31 min | 10.1 min
45 | CCC12CCCN3CCc4c(n(c5ccccc45)C(O)(C(=O)OC)C1)C32 (stereo not given) [Vincamin] |  | 9.43 min | 14.6 min
46 | COC(=O)C1C(O)CCC2CN3CCc4c([nH]c5ccccc45)C3CC21 (stereo not given) [Yohimbine] |  | 9.26 min | 14.1 min
47 | CC1CCCC(=O)CCCC=Cc2cc(O)cc(O)c2C(=O)O1 (stereo not given) [Zearalenone] |  | 14.4 min | 14.1 min
48 | O=C1Cc2cc(CCN3CCN(c4nsc5ccccc45)CC3)c(Cl)cc2N1 [Ziprasidone] |  | 11.3 min | 16.1 min
49 | CC1=C2C3OC(=O)C(C)C3CCC2(C)C=CC1=O (stereo not drawn) [alpha-Santonin] |  | 11.3 min | 11.5 min
50 | CC1CCCC(O)CCCC=Cc2cc(O)cc(O)c2C(=O)O1 (stereo not drawn) [beta Zearalenol] |  | 13.4 min | 13.3 min
51 | O=C1CCCCCN1 [epsilon-Caprolactam] |  | 6.99 min | 7 min
52 | OC(Cn1cncn1)(Cn1cncn1)c1ccc(F)cc1F [fluconazole] |  | 9.47 min | 9.58 min
53 | Nc1c(Cl)cnn(-c2ccccc2)c1=O [iso-Chloridazon] |  | 11.4 min | 11.6 min
54 | Cc1ccc(S(=O)(=O)O)c(C)c1 [m-Xylene-4-sulfonic acid] |  | 7.92 min | 7.83 min
55 | CCn1cc(C(=O)O)c(=O)c2cc(F)c(N3CCNCC3)cc21 [norfloxacin] |  | 8.16 min | 7.5 min
